Test results published in PMC5320485, “4-isopropylcyclohexanol has potential analgesic effects through the inhibition of anoctamin 1, TRPV1 and TRPA1 channel activities” (Scientific Reports, 2017).

Assays:
Format in all cases: cell-based
[1] = target: T1, mouse anoctamin 1 (mANO1) (Mus musculus, UniProt Q8BHY3); assay: whole-cell patch clamp in HEK293T cells, dose-response at −[…] mV
T1 construct: gene Ano1
T1 sequence (Q8BHY3 1-960): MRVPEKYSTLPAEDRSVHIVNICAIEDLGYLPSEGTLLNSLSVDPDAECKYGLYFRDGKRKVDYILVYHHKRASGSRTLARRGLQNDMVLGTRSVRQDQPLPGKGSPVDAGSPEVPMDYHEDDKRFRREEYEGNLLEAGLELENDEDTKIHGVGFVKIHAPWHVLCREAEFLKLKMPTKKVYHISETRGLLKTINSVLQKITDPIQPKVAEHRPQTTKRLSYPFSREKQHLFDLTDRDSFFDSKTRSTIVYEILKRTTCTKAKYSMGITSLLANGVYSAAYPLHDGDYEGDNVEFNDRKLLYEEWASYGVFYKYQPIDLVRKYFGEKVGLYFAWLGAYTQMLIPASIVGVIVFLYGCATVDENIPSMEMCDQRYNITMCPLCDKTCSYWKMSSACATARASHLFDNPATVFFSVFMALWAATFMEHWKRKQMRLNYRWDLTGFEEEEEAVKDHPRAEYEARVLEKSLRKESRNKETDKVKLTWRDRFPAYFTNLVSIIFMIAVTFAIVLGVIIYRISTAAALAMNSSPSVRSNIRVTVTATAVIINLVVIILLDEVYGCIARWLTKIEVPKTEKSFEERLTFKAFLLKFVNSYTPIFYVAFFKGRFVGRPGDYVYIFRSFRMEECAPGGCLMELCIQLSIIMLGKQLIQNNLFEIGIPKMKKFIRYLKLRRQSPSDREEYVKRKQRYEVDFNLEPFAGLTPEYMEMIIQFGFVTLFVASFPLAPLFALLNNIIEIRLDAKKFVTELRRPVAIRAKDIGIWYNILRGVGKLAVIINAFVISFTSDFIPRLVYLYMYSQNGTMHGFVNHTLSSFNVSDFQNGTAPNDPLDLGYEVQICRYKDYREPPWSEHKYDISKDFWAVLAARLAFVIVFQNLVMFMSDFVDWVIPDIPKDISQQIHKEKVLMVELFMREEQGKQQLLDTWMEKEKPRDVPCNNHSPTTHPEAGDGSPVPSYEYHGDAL

human TRPA1 (hTRPA1) = human TRPA1 (hTRPA1) (Homo sapiens, UniProt O75762); assay: whole-cell patch clamp in HEK293T cells; inhibits AITC currents at […] and weakly activates alone
[2] = target: T1, mouse anoctamin 1 (mANO1); assay: whole-cell patch clamp in HEK293T cells at […]

Sequence of human TRPA1 (hTRPA1) (O75762 whole entry): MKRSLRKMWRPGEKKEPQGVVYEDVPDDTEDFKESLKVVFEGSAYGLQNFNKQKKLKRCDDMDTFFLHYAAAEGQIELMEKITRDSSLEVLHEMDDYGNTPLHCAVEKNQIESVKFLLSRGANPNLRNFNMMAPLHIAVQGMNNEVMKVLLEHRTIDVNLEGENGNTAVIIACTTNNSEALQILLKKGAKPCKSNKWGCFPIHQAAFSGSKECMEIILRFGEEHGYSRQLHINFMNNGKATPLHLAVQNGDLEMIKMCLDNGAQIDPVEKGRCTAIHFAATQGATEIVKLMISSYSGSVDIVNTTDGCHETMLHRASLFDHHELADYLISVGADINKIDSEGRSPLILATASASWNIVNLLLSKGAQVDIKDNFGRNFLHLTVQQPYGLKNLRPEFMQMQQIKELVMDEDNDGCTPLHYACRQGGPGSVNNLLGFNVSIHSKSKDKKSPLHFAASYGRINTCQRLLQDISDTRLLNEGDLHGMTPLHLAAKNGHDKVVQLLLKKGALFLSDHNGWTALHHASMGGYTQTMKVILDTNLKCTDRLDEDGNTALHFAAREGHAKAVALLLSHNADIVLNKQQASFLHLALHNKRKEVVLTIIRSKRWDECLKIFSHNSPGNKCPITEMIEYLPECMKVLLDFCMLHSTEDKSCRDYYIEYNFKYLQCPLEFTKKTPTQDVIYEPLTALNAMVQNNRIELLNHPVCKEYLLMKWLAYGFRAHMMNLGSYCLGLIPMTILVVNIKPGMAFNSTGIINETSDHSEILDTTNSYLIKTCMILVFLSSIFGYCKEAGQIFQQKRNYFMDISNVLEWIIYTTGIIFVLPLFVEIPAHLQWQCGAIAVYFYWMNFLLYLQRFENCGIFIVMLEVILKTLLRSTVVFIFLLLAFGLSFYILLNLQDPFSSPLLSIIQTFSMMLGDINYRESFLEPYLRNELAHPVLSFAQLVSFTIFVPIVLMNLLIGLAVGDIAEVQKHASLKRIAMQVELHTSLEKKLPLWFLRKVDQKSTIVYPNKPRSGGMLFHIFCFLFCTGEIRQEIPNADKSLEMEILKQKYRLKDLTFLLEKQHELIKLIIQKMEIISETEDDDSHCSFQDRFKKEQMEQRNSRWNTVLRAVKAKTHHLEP

`CC(C)C1CCC(O)CC1` (stereo not shown) [4-iPr-CyH-OH, 4-isopropylcyclohexanol] was tested, and the IC50 [1] was 1090 µM and the “whole-cell patch clamp in HEK293T cells; inhibits AITC currents at 3 mM and weak” value (human TRPA1 (hTRPA1)) was 4-iPr-CyH-OH did not activate hTRPV1 (Fig. 5d), yet did slightly but significantly activate hTRPA1.
With `CC(C)C1CCCCC1` [iPr-CyH, isopropylcyclohexane] the “whole-cell patch clamp in HEK293T cells at 3 mM” value [2] was “isopropylcyclohexane (iPr-CyH) strongly inhibited mANO1 currents to a similar degree as that seen for d-menthol”.
`CC(C)[C@@H]1CC[C@@H](C)C[C@H]1O` [l-menthol] showed an IC50 [1] of 441 µM.
